Where “and” joins values, the source holds several entries; their conditions need not be identical. Equal entries are not always repeated.
Conditions: Hot wire method

FC(F)(F)/C=C/Cl [(E)-1-chloro-3,3,3-trifluoroprop-1-ene]
Conditions	thermal conductivity
403.42 K, 5979 kPa, Liquid	0.05892 W/m/K
403.43 K, 18618 kPa, Liquid	0.06817 W/m/K
403.44 K, 18637 kPa, Liquid	0.06808 W/m/K
403.48 K, 4696 kPa, Liquid	0.0577 W/m/K
403.48 K, 4700 kPa, Liquid	0.05772 W/m/K
403.49 K, 9102 kPa, Liquid	0.06156 W/m/K
403.49 K, 9108 kPa, Liquid	0.06159 W/m/K
403.53 K, 3569 kPa, Liquid	0.05653 W/m/K
403.54 K, 3575 kPa, Liquid	0.05665 W/m/K
403.54 K, 15778 kPa, Liquid	0.06628 W/m/K
403.54 K, 15782 kPa, Liquid	0.06631 W/m/K
403.58 K, 7083 kPa, Liquid	0.05991 W/m/K
403.58 K, 7093 kPa, Liquid	0.05996 W/m/K
403.59 K, 2636 kPa, Liquid	0.0556 W/m/K
403.6 K, 2641 kPa, Liquid	0.05565 W/m/K
420.8 K, 2579 kPa, Fluid (supercritical or subcritical phases)	0.02548 W/m/K
420.81 K, 2579 kPa, Fluid (supercritical or subcritical phases)	0.02537 W/m/K
420.9 K, 2520 kPa, Fluid (supercritical or subcritical phases)	0.02499 W/m/K and 0.02461 W/m/K
420.92 K, 2579 kPa, Fluid (supercritical or subcritical phases)	0.02548 W/m/K and 0.02551 W/m/K
421 K, 2520 kPa, Fluid (supercritical or subcritical phases)	0.02479 W/m/K
421.01 K, 2519 kPa, Fluid (supercritical or subcritical phases)	0.0248 W/m/K
421.03 K, 2579 kPa, Fluid (supercritical or subcritical phases)	0.02568 W/m/K
421.04 K, 2579 kPa, Fluid (supercritical or subcritical phases)	0.02548 W/m/K
421.11 K, 2519 kPa, Fluid (supercritical or subcritical phases)	0.02483 W/m/K
421.11 K, 2520 kPa, Fluid (supercritical or subcritical phases)	0.02479 W/m/K
421.15 K, 2469 kPa, Fluid (supercritical or subcritical phases)	0.02425 W/m/K and 0.02441 W/m/K
421.16 K, 2579 kPa, Fluid (supercritical or subcritical phases)	0.02588 W/m/K
421.16 K, 2580 kPa, Fluid (supercritical or subcritical phases)	0.02588 W/m/K
421.21 K, 2403 kPa, Fluid (supercritical or subcritical phases)	0.02382 W/m/K
421.24 K, 2520 kPa, Fluid (supercritical or subcritical phases)	0.02505 W/m/K
421.25 K, 2307 kPa, Fluid (supercritical or subcritical phases)	0.02316 W/m/K and 0.02317 W/m/K
421.25 K, 2520 kPa, Fluid (supercritical or subcritical phases)	0.02484 W/m/K
421.29 K, 2203 kPa, Fluid (supercritical or subcritical phases)	0.02266 W/m/K
421.29 K, 2204 kPa, Fluid (supercritical or subcritical phases)	0.02272 W/m/K
421.29 K, 2468 kPa, Fluid (supercritical or subcritical phases)	0.02448 W/m/K
421.3 K, 2469 kPa, Fluid (supercritical or subcritical phases)	0.02444 W/m/K
421.32 K, 2099 kPa, Fluid (supercritical or subcritical phases)	0.02221 W/m/K
421.33 K, 2099 kPa, Fluid (supercritical or subcritical phases)	0.02225 W/m/K
421.35 K, 2403 kPa, Fluid (supercritical or subcritical phases)	0.02395 W/m/K and 0.02391 W/m/K
421.36 K, 1997 kPa, Fluid (supercritical or subcritical phases)	0.02198 W/m/K and 0.02199 W/m/K
421.39 K, 2307 kPa, Fluid (supercritical or subcritical phases)	0.02322 W/m/K
421.39 K, 2519 kPa, Fluid (supercritical or subcritical phases)	0.02527 W/m/K
421.39 K, 2520 kPa, Fluid (supercritical or subcritical phases)	0.02527 W/m/K
421.4 K, 1861 kPa, Fluid (supercritical or subcritical phases)	0.0216 W/m/K
421.4 K, 1862 kPa, Fluid (supercritical or subcritical phases)	0.02165 W/m/K
421.44 K, 1724 kPa, Fluid (supercritical or subcritical phases)	0.02132 W/m/K
421.44 K, 2203 kPa, Fluid (supercritical or subcritical phases)	0.02269 W/m/K
421.44 K, 2469 kPa, Fluid (supercritical or subcritical phases)	0.02473 W/m/K and 0.02459 W/m/K
421.45 K, 1723 kPa, Fluid (supercritical or subcritical phases)	0.02131 W/m/K
421.45 K, 2204 kPa, Fluid (supercritical or subcritical phases)	0.02274 W/m/K
421.48 K, 2100 kPa, Fluid (supercritical or subcritical phases)	0.02256 W/m/K and 0.02228 W/m/K
421.51 K, 2403 kPa, Fluid (supercritical or subcritical phases)	0.02407 W/m/K and 0.02398 W/m/K
421.52 K, 1998 kPa, Fluid (supercritical or subcritical phases)	0.02205 W/m/K and 0.02199 W/m/K
421.53 K, 1561 kPa, Fluid (supercritical or subcritical phases)	0.02097 W/m/K
421.54 K, 1562 kPa, Fluid (supercritical or subcritical phases)	0.02106 W/m/K
421.56 K, 2307 kPa, Fluid (supercritical or subcritical phases)	0.02344 W/m/K and 0.02334 W/m/K
421.57 K, 1862 kPa, Fluid (supercritical or subcritical phases)	0.02171 W/m/K
421.57 K, 1863 kPa, Fluid (supercritical or subcritical phases)	0.02167 W/m/K
421.58 K, 1402 kPa, Fluid (supercritical or subcritical phases)	0.02076 W/m/K
421.59 K, 1402 kPa, Fluid (supercritical or subcritical phases)	0.02091 W/m/K
421.61 K, 2204 kPa, Fluid (supercritical or subcritical phases)	0.02283 W/m/K
421.62 K, 1724 kPa, Fluid (supercritical or subcritical phases)	0.02136 W/m/K
421.62 K, 2203 kPa, Fluid (supercritical or subcritical phases)	0.02292 W/m/K
421.62 K, 2616 kPa, Liquid	0.0497 W/m/K
421.63 K, 1724 kPa, Fluid (supercritical or subcritical phases)	0.0214 W/m/K
421.63 K, 2616 kPa, Liquid	0.04969 W/m/K
421.64 K, 1220 kPa, Fluid (supercritical or subcritical phases)	0.02082 W/m/K
421.64 K, 1221 kPa, Fluid (supercritical or subcritical phases)	0.02077 W/m/K
421.66 K, 2099 kPa, Fluid (supercritical or subcritical phases)	0.02245 W/m/K
421.66 K, 2100 kPa, Fluid (supercritical or subcritical phases)	0.02244 W/m/K
421.67 K, 2403 kPa, Fluid (supercritical or subcritical phases)	0.02364 W/m/K
421.68 K, 1031 kPa, Fluid (supercritical or subcritical phases)	0.02073 W/m/K
421.68 K, 2403 kPa, Fluid (supercritical or subcritical phases)	0.02418 W/m/K
421.69 K, 1998 kPa, Fluid (supercritical or subcritical phases)	0.02232 W/m/K
421.7 K, 1999 kPa, Fluid (supercritical or subcritical phases)	0.02203 W/m/K
421.71 K, 1562 kPa, Fluid (supercritical or subcritical phases)	0.02117 W/m/K
421.72 K, 2307 kPa, Fluid (supercritical or subcritical phases)	0.02349 W/m/K
421.74 K, 801 kPa, Fluid (supercritical or subcritical phases)	0.0208 W/m/K
421.75 K, 1862 kPa, Fluid (supercritical or subcritical phases)	0.02184 W/m/K
421.75 K, 1863 kPa, Fluid (supercritical or subcritical phases)	0.02174 W/m/K
421.77 K, 1401 kPa, Fluid (supercritical or subcritical phases)	0.02096 W/m/K
421.77 K, 1403 kPa, Fluid (supercritical or subcritical phases)	0.02094 W/m/K
421.78 K, 3760 kPa, Liquid	0.05136 W/m/K and 0.05147 W/m/K
421.79 K, 2203 kPa, Fluid (supercritical or subcritical phases)	0.02296 W/m/K and 0.02299 W/m/K
421.8 K, 3309 kPa, Liquid	0.05069 W/m/K
421.81 K, 1723 kPa, Fluid (supercritical or subcritical phases)	0.02142 W/m/K
421.81 K, 1724 kPa, Fluid (supercritical or subcritical phases)	0.02139 W/m/K
421.81 K, 2616 kPa, Liquid	0.04986 W/m/K and 0.05013 W/m/K
421.81 K, 2914 kPa, Liquid	0.05019 W/m/K and 0.05004 W/m/K
421.81 K, 3308 kPa, Liquid	0.05077 W/m/K
421.83 K, 1221 kPa, Fluid (supercritical or subcritical phases)	0.0209 W/m/K
421.84 K, 2100 kPa, Fluid (supercritical or subcritical phases)	0.02258 W/m/K
421.85 K, 2099 kPa, Fluid (supercritical or subcritical phases)	0.02249 W/m/K
421.88 K, 1030 kPa, Fluid (supercritical or subcritical phases)	0.02077 W/m/K
421.88 K, 1033 kPa, Fluid (supercritical or subcritical phases)	0.02075 W/m/K
421.88 K, 1998 kPa, Fluid (supercritical or subcritical phases)	0.0222 W/m/K and 0.02217 W/m/K
421.91 K, 1563 kPa, Fluid (supercritical or subcritical phases)	0.02121 W/m/K
421.91 K, 2306 kPa, Fluid (supercritical or subcritical phases)	0.02366 W/m/K
421.91 K, 2307 kPa, Fluid (supercritical or subcritical phases)	0.02365 W/m/K
421.92 K, 1563 kPa, Fluid (supercritical or subcritical phases)	0.02116 W/m/K
421.94 K, 802 kPa, Fluid (supercritical or subcritical phases)	0.02077 W/m/K
421.95 K, 1862 kPa, Fluid (supercritical or subcritical phases)	0.02178 W/m/K and 0.0218 W/m/K
421.97 K, 2203 kPa, Fluid (supercritical or subcritical phases)	0.02307 W/m/K
421.98 K, 1401 kPa, Fluid (supercritical or subcritical phases)	0.02101 W/m/K
421.98 K, 1403 kPa, Fluid (supercritical or subcritical phases)	0.02116 W/m/K
421.98 K, 2204 kPa, Fluid (supercritical or subcritical phases)	0.02311 W/m/K
421.99 K, 3758 kPa, Liquid	0.05138 W/m/K
421.99 K, 4307 kPa, Liquid	0.05224 W/m/K
422 K, 3762 kPa, Liquid	0.05146 W/m/K
422 K, 4305 kPa, Liquid	0.0522 W/m/K
422.01 K, 1724 kPa, Fluid (supercritical or subcritical phases)	0.02156 W/m/K and 0.02145 W/m/K
422.01 K, 2914 kPa, Liquid	0.05029 W/m/K
422.01 K, 3308 kPa, Liquid	0.05079 W/m/K
422.01 K, 3310 kPa, Liquid	0.05082 W/m/K
422.02 K, 2616 kPa, Liquid	0.05008 W/m/K and 0.05005 W/m/K
422.02 K, 2914 kPa, Liquid	0.05026 W/m/K
422.03 K, 2099 kPa, Fluid (supercritical or subcritical phases)	0.02265 W/m/K
422.04 K, 2099 kPa, Fluid (supercritical or subcritical phases)	0.02262 W/m/K
422.06 K, 1218 kPa, Fluid (supercritical or subcritical phases)	0.02083 W/m/K
422.06 K, 1220 kPa, Fluid (supercritical or subcritical phases)	0.0209 W/m/K
422.08 K, 1998 kPa, Fluid (supercritical or subcritical phases)	0.0223 W/m/K
422.1 K, 1030 kPa, Fluid (supercritical or subcritical phases)	0.02079 W/m/K
422.1 K, 1031 kPa, Fluid (supercritical or subcritical phases)	0.02076 W/m/K
422.12 K, 1562 kPa, Fluid (supercritical or subcritical phases)	0.02118 W/m/K
422.16 K, 1862 kPa, Fluid (supercritical or subcritical phases)	0.02194 W/m/K
422.16 K, 1863 kPa, Fluid (supercritical or subcritical phases)	0.02189 W/m/K
422.18 K, 803 kPa, Fluid (supercritical or subcritical phases)	0.0208 W/m/K
422.18 K, 4947 kPa, Liquid	0.05308 W/m/K
422.18 K, 4948 kPa, Liquid	0.05312 W/m/K
422.2 K, 1401 kPa, Fluid (supercritical or subcritical phases)	0.02102 W/m/K
422.2 K, 1402 kPa, Fluid (supercritical or subcritical phases)	0.02108 W/m/K
422.21 K, 3760 kPa, Liquid	0.05155 W/m/K and 0.05149 W/m/K
422.21 K, 4301 kPa, Liquid	0.05224 W/m/K
422.22 K, 4305 kPa, Liquid	0.05226 W/m/K
422.23 K, 1723 kPa, Fluid (supercritical or subcritical phases)	0.02155 W/m/K
422.23 K, 3307 kPa, Liquid	0.05087 W/m/K
422.24 K, 1723 kPa, Fluid (supercritical or subcritical phases)	0.0216 W/m/K
422.24 K, 3310 kPa, Liquid	0.05093 W/m/K
422.25 K, 1221 kPa, Fluid (supercritical or subcritical phases)	0.0209 W/m/K
422.25 K, 2616 kPa, Liquid	0.05034 W/m/K
422.25 K, 2913 kPa, Liquid	0.05043 W/m/K
422.25 K, 2914 kPa, Liquid	0.05049 W/m/K
422.33 K, 1032 kPa, Fluid (supercritical or subcritical phases)	0.02082 W/m/K
422.33 K, 1561 kPa, Fluid (supercritical or subcritical phases)	0.02131 W/m/K
422.33 K, 6610 kPa, Liquid	0.05507 W/m/K

Reference: the NIST ThermoML archive (doi:10.1021/acs.jced.7b00106)
